Results published in US10703746B2, “Mutant IDH1 inhibitors useful for treating cancer” (THE UNITED STATES OF AMERICA, AS REPRESENTED BY THE …, priority 2014, dated 2020).

How the values were obtained:
IDH1 R132H = IDH1 R132H (Homo sapiens, UniProt O75874, R132H); assay: IDH1 R132H enzymatic assay (NADPH depletion coupled to diaphorase/resazurin); assay type: biochemical
IDH1 R132C = IDH1 R132C (Homo sapiens, UniProt O75874, R132C); assay: IDH1 R132C enzymatic assay (NADPH depletion coupled to diaphorase/resazurin); assay type: biochemical
Outline: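 NADPH depletion, read via diaphorase/resazurin coupling, after adding substrate at 0.6 mM α-KG and 0.012 mM NADPH. Beforehand, 0.00032 mg/mL enzyme sat with compound 30 min at room temperature in pH 6.5 potassium phosphate buffer with MgCl2, glycerol and BSA.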

[1] = IDH1 R132H enzymatic inhibition, IC50 class
[2] = IDH1 R132C enzymatic inhibition, IC50 class
[3] = enzymatic inhibition, IDH1 R132H
[4] = enzymatic inhibition, IDH1 R132C

Sequence of IDH1 R132H (O75874 whole entry R132H): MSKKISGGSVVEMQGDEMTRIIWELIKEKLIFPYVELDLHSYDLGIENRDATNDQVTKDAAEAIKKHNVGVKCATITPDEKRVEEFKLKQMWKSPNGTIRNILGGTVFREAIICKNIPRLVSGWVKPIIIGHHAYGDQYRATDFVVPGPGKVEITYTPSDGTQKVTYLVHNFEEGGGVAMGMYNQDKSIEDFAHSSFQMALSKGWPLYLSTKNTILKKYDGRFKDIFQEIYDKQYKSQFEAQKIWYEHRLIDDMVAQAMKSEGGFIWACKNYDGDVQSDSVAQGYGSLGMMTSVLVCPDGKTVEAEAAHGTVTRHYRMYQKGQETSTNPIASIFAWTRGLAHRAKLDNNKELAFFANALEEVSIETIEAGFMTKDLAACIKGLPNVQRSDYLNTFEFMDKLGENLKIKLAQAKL
Sequence of IDH1 R132C (O75874 whole entry R132C): as the sequence (O75874 whole entry R132H) above, with H132C counted along it

SMILES | IC50 (IDH1 R132H; [1]) | IC50 (IDH1 R132C; [2]) | IC50 (IDH1 R132H; [3]) | IC50 (IDH1 R132C; [4])
CCc1cccc(CC)c1-n1c(-c2cccn2C)c(C(=O)N2CCNCC2)cc(-c2nc(-c3ccc(Cl)cc3)cs2)c1=O [Compound 518] | – | – | < 300 nM | < 300 nM
COc1ccc(OC)c(-n2c3c(cc(-c4nnn(-c5ccc(Cl)cc5)n4)c2=O)C(=O)CC(C)(C)C3)c1 [Compound 287] | > 20000 nM | 1000 to 5000 nM | – | –
CCOc1ncc(F)cc1-n1c(C=C(C)C)c(C(=O)N2CCNCC2)cc(-c2nc(-c3ccc(C(F)F)cn3)cs2)c1=O [Compound 474] | – | – | 300 to 1000 nM | 1000 to 5000 nM
CCc1cccc(CC)c1-n1c2c(cc(-c3nc(-c4ccc(Cl)cc4)cs3)c1=O)C(=O)OC(C)(C)C2 [Compound 475] | – | – | 300 to 1000 nM | 300 to 1000 nM
Cc1ccc(C(=O)O)cc1-n1c2c(cc(-c3nc(-c4ccc(Cl)cc4)cs3)c1=O)C(=O)CC(C)(C)C2 [Compound 166] | > 20000 nM | 5000 to 20000 nM | – | –
CCc1ccc(OC)cc1-n1c(C=C(C)C)c(C(=O)N2CCNCC2)cc(-c2nc(-c3ccc(Cl)cc3)cs2)c1=O [Compound 539] | – | – | < 300 nM | < 300 nM
COc1ccc(OC)c(-n2c3c(cc(-c4nc(-c5ccc(Cl)cc5)cs4)c2=O)C(=O)N(C(=O)OC(C)(C)C)CC3)c1 [Compound 23] | > 20000 nM | 5000 to 20000 nM | – | –
CCc1cccc(CC)c1-n1c(C(C)OC)c(C(=O)N2CCNCC2)cc(-c2nc(-c3ccc(Cl)cc3)cs2)c1=O (stereo not shown) [Compound 459] | – | – | < 300 nM | < 300 nM
Cc1ccc(-n2c3c(cc(-c4nc(-c5ccc(Cl)cc5)cs4)c2=O)C(=O)CC(C)(C)C3)c(Cl)c1 [Compound 594] | – | – | > 20000 nM | 1000 to 5000 nM
CC1(C)CC(=O)c2cc(-c3nc(-c4ccc(Cl)cc4)cs3)c(=O)n(-c3ccccc3O)c2C1 [Compound 199] | 5000 to 20000 nM | 5000 to 20000 nM | – | –
CCc1cccc(CC)c1-n1c(C)c(C(=O)O)cc(-c2nc(-c3ccc(Cl)cc3)cs2)c1=O [Compound 143] | 5000 to 20000 nM | 5000 to 20000 nM | – | –
CN1CCN(Cc2ccc(-n3c4c(cc(-c5nc(-c6ccc(Cl)cc6)cs5)c3=O)C(=O)CC(C)(C)C4)cc2)CC1 [Compound 498] | – | – | 1000 to 5000 nM | 5000 to 20000 nM
CCc1cccc(CC)c1-n1c(C=C(C)C)c(C(=O)N2CCNC(C(C)C)C2)cc(-c2nc(-c3ccc(Cl)cc3)cs2)c1=O (stereo not shown) [Compound 489] | – | – | < 300 nM | < 300 nM
CN1CCN(Cc2cccc(-n3c4c(cc(-c5nc(-c6ccc(Cl)cc6)cs5)c3=O)C(=O)CC(C)(C)C4)c2)CC1 [Compound 445] | – | – | 5000 to 20000 nM | 5000 to 20000 nM
CN1CCN(Cc2ccccc2-n2c3c(cc(-c4nc(-c5ccc(Cl)cc5)cs4)c2=O)C(=O)CC(C)(C)C3)CC1 [Compound 547] | – | – | 5000 to 20000 nM | 5000 to 20000 nM
CCOC(=O)c1c(O)c(-c2nc(-c3ccc(Cl)cc3)cs2)c(=O)n(-c2c(CC)cccc2CC)c1C [Compound 347, ethyl 5-(4-(4-chlorophenyl)thiazol-2-yl)-1-(2,6-diethylphenyl)-4-hydroxy-2-methyl-6-oxo-1,6-dihydropyridine-3-carboxylate] | 5000 to 20000 nM | 5000 to 20000 nM | – | –
CCCc1c(C(=O)N2CCNCC2)cc(-c2nc(-c3ccc(Cl)cc3)cs2)c(=O)n1-c1c(CC)cccc1CC [Compound 473] | – | – | < 300 nM | < 300 nM
CCOc1ncc(C)cc1-n1c(C=C(C)C)c(C(=O)N2CCNCC2)cc(-c2nc(-c3ccc(Cl)cc3)cs2)c1=O [Compound 544] | – | – | < 300 nM | < 300 nM
Cc1cccc(CN2CCN(C)CC2)c1-n1c2c(cc(-c3nc(-c4ccc(Cl)cc4)cs3)c1=O)C(=O)CC(C)(C)C2 [Compound 17] | 5000 to 20000 nM | 5000 to 20000 nM | – | –
CN1CCN(Cc2cccc(-n3c4c(cc(-c5nc(-c6ccc(Cl)cc6)cs5)c3=O)C(=O)CCC4)c2)CC1 [Compound 570] | – | – | > 20000 nM | > 20000 nM
CCc1cccc(CC)c1-n1c(C=C(C)C)c(C(=O)N2CCNC(C(=O)O)C2)cc(-c2nc(-c3ccc(Cl)cc3)cs2)c1=O (stereo not shown) [Compound 591] | – | – | < 300 nM | < 300 nM
CCc1cccc(CC)c1-n1c(C=C(C)C)c(C(=O)N2CCN(c3ccccc3C(F)(F)F)CC2)cc(-c2nc(-c3ccc(Cl)cc3)cs2)c1=O [Compound 480] | – | – | 5000 to 20000 nM | 5000 to 20000 nM
CCc1cccc(CC)c1-n1c(C)c(C(=O)NC2CCCCC2)cc(-c2nc(-c3ccc(Cl)cc3)cs2)c1=O [Compound 116] | > 20000 nM | 1000 to 5000 nM | – | –

Results, then the compound that gave them:

IC50 (IDH1 R132H; [1]) | IC50 (IDH1 R132C; [2]) | IC50 (IDH1 R132H; [3]) | IC50 (IDH1 R132C; [4]) | SMILES
1000 to 5000 nM | 300 to 1000 nM | – | – | CCc1cccc(CC)c1-n1c(C)c(C(=O)NCCOC)cc(-c2nc(-c3ccc(Cl)cc3)cs2)c1=O [Compound 169]
300 to 1000 nM | < 300 nM | – | – | CCc1cccc(CC)c1-n1c(CC(C)C)c(C(=O)NC[C@@H](N)C(=O)O)cc(-c2nc(-c3ccc(Cl)cc3)cs2)c1=O [Compound 172]
1000 to 5000 nM | 300 to 1000 nM | – | – | CCc1cccc(CC)c1-n1c(C(C)C)c(C(=O)N2CCNC[C@H]2C)cc(-c2nc(-c3ccc(Cl)cc3)cs2)c1=O [Compound 37]
300 to 1000 nM | < 300 nM | – | – | CCc1cccc(CC)c1-n1c(CC(C)C)c(C(=O)N2CCNC(C)(CO)C2)cc(-c2nc(-c3ccc(Cl)cc3)cs2)c1=O (stereo not shown) [Compound 273]
5000 to 20000 nM | 5000 to 20000 nM | – | – | CC1(C)CC(=O)c2cc(-c3nc(-c4ccc(Cl)cc4)cs3)c(=O)n(-c3ccccc3CN)c2C1 [Compound 5]
< 300 nM | < 300 nM | – | – | CCc1cccc(CC)c1-n1c(CC(C)C)c(C(=O)N2CCNCC2)cc(-c2nc(-c3ccc(C)cc3)c(C)s2)c1=O [Compound 76]
1000 to 5000 nM | 1000 to 5000 nM | – | – | COc1ccc(OC)c(-n2c3c(cc(-c4ccn(-c5ccccc5)n4)c2=O)C(=O)CC(C)(C)C3)c1 [Compound 158]
5000 to 20000 nM | 1000 to 5000 nM | – | – | O=C1CCCc2c1cc(-c1nc(-c3ccc(Cl)cc3)cs1)c(=O)n2-c1ccccc1CN1CCOCC1 [Compound 339]
1000 to 5000 nM | < 300 nM | – | – | CCc1cccc(CC)c1-n1c(C(C)C)c(C(=O)N2CCN[C@@H](C(=O)OC)C2)cc(-c2nc(-c3ccc(Cl)cc3)cs2)c1=O [Compound 222]
1000 to 5000 nM | 1000 to 5000 nM | – | – | CC1(C)CC(=O)c2cc(-c3nc(-c4ccncc4)cs3)c(=O)n(-c3ccccc3C(F)(F)F)c2C1 [Compound 255]
1000 to 5000 nM | 1000 to 5000 nM | – | – | CCc1cccc(CC)c1-n1c2c(cc(-c3nc(-c4ccccc4F)cs3)c1=O)C(=O)CC(C)(C)C2 [Compound 226]
1000 to 5000 nM | 1000 to 5000 nM | – | – | CCc1ncc(F)cc1-n1c(C=C(C)C)c(C(=O)N2CCNCC2)cc(-c2nc(-c3ccc(C(F)F)cn3)cs2)c1=O [Compound 619]
1000 to 5000 nM | 1000 to 5000 nM | – | – | CCc1cccc(CC)c1-n1c2c(cc(-c3nc(-c4cccc(F)c4)cs3)c1=O)C(=O)CC(C)(C)C2 [Compound 209]
300 to 1000 nM | < 300 nM | – | – | CCOc1ccc(OCC)c(-n2c3c(cc(-c4nc(-c5ccc(Cl)cc5)cs4)c2=O)C(=O)CC(C)(C)C3)c1 [Compound 828]
1000 to 5000 nM | 1000 to 5000 nM | – | – | CCc1cccc(CC)c1-n1c(CC(C)C)c(C(=O)N2CCNCC2)cc(-c2nc(-c3ccc(C(C)(C)C)cc3)c(C)s2)c1=O [Compound 160]
< 300 nM | < 300 nM | – | – | CCc1cccc(CC)c1-n1c(CC(C)C)c(C(=O)N2CCNCC2)cc(-c2ccn(-c3ccc(C(F)(F)F)cc3)n2)c1=O [Compound 640]
1000 to 5000 nM | 1000 to 5000 nM | – | – | CCc1cccc(CC)c1-n1c(C)c(C(=O)NC2CCCCC2O)cc(-c2nc(-c3ccc(Cl)cc3)cs2)c1=O (stereo not shown) [Compound 270]
< 300 nM | < 300 nM | – | – | CCc1cccc(CC)c1-n1c(C=C(C)C)c(C(=O)N2CCNC(C(N)=O)C2)cc(-c2ccn(-c3ccc(Cl)cc3)n2)c1=O (stereo not shown) [Compound 653]
1000 to 5000 nM | 1000 to 5000 nM | – | – | COc1ccc(OC)c(-n2c3c(cc(-c4c[nH]c(-c5ccccc5)n4)c2=O)C(=O)CC(C)(C)C3)c1 [Compound 290]
300 to 1000 nM | 300 to 1000 nM | – | – | CCOc1ccccc1-n1c2c(cc(-c3nc(-c4ccc(Cl)cc4)cs3)c1=O)C(=O)CC(C)(C)C2 [Compound 212]
< 300 nM | < 300 nM | – | – | CCc1cccc(CC)c1-n1c(C=C(C)C)c(C(=O)N2CCNCC2)cc(-c2nc(-c3ccc(C4CC4)cc3)cs2)c1=O [Compound 620]
1000 to 5000 nM | 1000 to 5000 nM | – | – | CCc1cccc(CC)c1-n1c2c(cc(-c3nc(-c4cccc(O)c4)cs3)c1=O)C(=O)CC(C)(C)C2 [Compound 249]
< 300 nM | < 300 nM | – | – | CCc1cccc(CC)c1-n1c(CC(C)C)c(C(=O)N2CCNC(CO)C2)cc(-c2nc(-c3ccc(Cl)cc3)cs2)c1=O (stereo not shown) [Compound 201]
300 to 1000 nM | < 300 nM | – | – | CCc1cccc(CC)c1-n1c(CC(C)C)c(C(=O)N2C[C@@H](C)N[C@@H](C)C2)cc(-c2nc(-c3ccc(Cl)cc3)cs2)c1=O [Compound 112]
1000 to 5000 nM | 1000 to 5000 nM | – | – | CCCCc1ccc(-c2nc(-c3cc(C(=O)N4CCNCC4)c(CC(C)C)n(-c4c(CC)cccc4CC)c3=O)sc2C)cc1 [Compound 44]
300 to 1000 nM | 300 to 1000 nM | – | – | CCc1cccc(CC)c1-n1c(C(C)C)c(C(=O)NC)cc(-c2nc(-c3ccc(Cl)cc3)cs2)c1=O [Compound 32]
1000 to 5000 nM | 1000 to 5000 nM | – | – | CCc1cccc(CC)c1-n1c(C)c(C(=O)N2CC(O)C2)cc(-c2nc(-c3ccc(Cl)cc3)cs2)c1=O [Compound 242]
1000 to 5000 nM | 5000 to 20000 nM | – | – | CC(=O)Nc1ccccc1-n1c2c(cc(-c3nc(-c4ccc(Cl)cc4)cs3)c1=O)C(=O)CC(C)(C)C2 [Compound 105]
< 300 nM | < 300 nM | – | – | CCc1ccc(F)cc1-n1c(C=C(C)C)c(C(=O)N2CCNCC2)cc(-c2nc(-c3ccc(C(F)F)cc3)cs2)c1=O [Compound 379]
1000 to 5000 nM | 1000 to 5000 nM | – | – | Cc1c(N)cccc1-n1c2c(cc(-c3nc(-c4ccc(Cl)cc4)cs3)c1=O)C(=O)CC(C)(C)C2 [Compound 288]
